Each structure is given as a SMILES string.

Here are results for five compounds from patent publication EP4496786B1, “CRYSTALLINE FORM OF 2-ACRYLAMIDO-2-METHYLPROPANESULPHONIC ACID POTASSIUM SALT” (SNF Group, priority 2023, dated 2024).

Common to all, as to type: physicochemical
A short description of data set [1]: Storage stability of ATBS / ATBS.K stored in solid form: homopolymer by steric exclusion chromatography. As to conditions: newly prepared solution. The method, then: In parallel, the stability of the different ATBS (acid AH or potassium salt AK2a) in solid form was also assessed over the same period of time.
In this case, every three months, 500 g of a solution of ATBS.K was freshly prepared according to the preparation process described in example 10a or 11 using the stored ATBS products of AH, AK2a and CE-AK2c to 2e.
Stability of the solid products was also assessed by monitoring the amount of homopolymers of ATBS.K present after that time.
The solutions were analysed by liquid-phase steric exclusion chromatography using an Agilent 1260 chromatograph equipped with Aquagel-OH 20, 30, 40 and 50 columns allowing analysis of anionic polymers up to 600,000 g/mol PEG equivalent.
The solutions of ATBS.K were diluted to 2000 ppm (by weight in water) before being injected. The UV signal at 250 nm at the column outlet was integrated for the polymer peaks and are detailed in tables 4 and 5 below. The larger the signal area, the more polymer is present, and therefore the lower the stability of the product over time. Table 4: Stability of ATBS and ATBS potassium salt stored in solutions

Data set [2] in a line: Minimum ignition energy (MIE), standard NF EN 13821, vertical Hartmann tube. Conditions: dispersed solid mass 0,5 g. The source says: The minimum ignition energy represents the minimum energy that must be supplied to a product (chemical compound) to cause it to ignite. The energy may be electrical or thermal. The minimum ignition energy is an essential piece of information when considering the risk of explosion during product handling (transfer, storage, reaction, shaping, etc.). In the case of solids, this energy is the minimum energy of an electric spark likely to ignite a cloud of dust. The higher the value of the minimum ignition energy, the less risk the solid presents when used, handled or stored. The minimum ignition energy is measured in accordance with standard NF EN 13821. The explosimeter is a vertical Hartmann tube. The dust dispersion system is of the mushroom type. Total induction is less than 25 microhenry. Discharge voltage is between 5 kV and 15 kV. The electrodes are made of brass and spaced apart by a minimum distance of 6 mm.

The nature of data set [3]: Particle-size distribution by laser diffraction (Cilas 1190). The method, then: ATBS AH and crystals of ATBS.K AK2a are analysed by laser diffraction to determine their particle-size distribution.
The laser diffraction equipment used is a Cilas 1190.

For the compound `C=CC(=O)NC(C)(C)CS(=O)(=O)O` [ATBS AH, 2-acrylamido-2-methylpropanesulphonic acid], the “UV signal at 250 nm integrated for the polymer peaks” value (shortened to “UV signal at 250 nm integrated”) in data set [1] (T0) is 0 mV.s; in data set [1] (T0 + 3 months) it was 250 mV.s; in data set [1] (T0 + 6 months), 7702 mV.s; in data set [1] (T0 + 9 months), 10503 mV.s; in data set [1] (T0 + 12 months) it was 256300 mV.s. In addition, the Flame result in data set [2] (Energy 300 mJ) is given as “Average”; in data set [2] (Energy 500 mJ), “Average”; in data set [2] (Energy 1000 mJ) it was “Small”. The Pressure result in data set [2] (Energy 300 mJ) is reported as “Average”; in data set [2] (Energy 500 mJ) it was “Average”; in data set [2] (Energy 1000 mJ), “Low”. Also, in data set [3], the “90% of the particles are smaller than” value is on record as 100 µm. In addition, the d50 value entry in data set [3] is “approximately 40 µm”.

Regarding `C=CC(=O)NC(C)(C)CS(=O)(=O)[O-].[K+]` [ATBS.K CE-AK2c, 2-acrylamido-2-methylpropanesulphonic acid potassium salt], the “UV signal at 250 nm integrated” value in data set [1] (T0) was found to be 0 mV.s; in data set [1] (T0 + 3 months, potassium salt) it was 261 mV.s.

In the case of `C=CC(=O)NC(C)(C)CS(=O)(=O)[O-].[K+]` [ATBS.K CE-AK2d, 2-acrylamido-2-methylpropanesulphonic acid potassium salt], the “UV signal at 250 nm integrated” value in data set [1] (T0) is on record as 0 mV.s; in data set [1] (T0 + 3 months, potassium salt), 254 mV.s.

Regarding `C=CC(=O)NC(C)(C)CS(=O)(=O)[O-].[K+]` [ATBS.K AK2a, 2-acrylamido-2-methylpropanesulphonic acid potassium salt], the “UV signal at 250 nm integrated” value in data set [1] (T0) turned out to be 0 mV.s; in data set [1] (T0 + 3 months, potassium salt), 200 mV.s; in data set [1] (T0 + 6 months), 6532 mV.s; in data set [1] (T0 + 9 months) it was 9532 mV.s; in data set [1] (T0 + 12 months), 25631 mV.s. Further, the Flame entry in data set [2] (High energy) is “Small”. For the same compound, the Pressure result in data set [2] (High energy) is “Low”. The “90% of the particles are smaller than” value in data set [3] is given as “approximately 1500 µm”. Also, in data set [3], the d50 value result is reported as “approximately 600 µm”. In data set [3], the “particles smaller than 325 µm” value is given as “less than 10%”.

Take `C=CC(=O)NC(C)(C)CS(=O)(=O)[O-].[K+]` [ATBS.K CE-AK2e, 2-acrylamido-2-methylpropanesulphonic acid potassium salt]: the “UV signal at 250 nm integrated” value is on record as 0 mV.s in data set [1] (T0) and 251 mV.s in data set [1] (T0 + 3 months, potassium salt).
